Measurements published in US11395490B2, “Herbicidal composition” (SYNGENTA CROP PROTECTION, LLC, priority 2005, dated 2022).

Columns and labels:
Assay type in all cases: in vivo
Conditions in all cases: 21 days after treatment
Sorghum vulgare (SORVU) = experiment: Post-emergence test, Sorghum vulgare
Source text: (§1) The herbicidal action to be expected, We, for a given combination of two herbicides can be calculated as follows (see COLBY, S. R. “Calculating synergistic and antagonistic response of herbicide combinations”. Weeds 15, pages 20-22; 1967): We=X+[Y·(100−X)/100] wherein: X=% herbicidal action in the case of treatment with active ingredient (A) using an application rate of p kg per hectare, in comparison with untreated control (=0%). Y=% herbicidal action in the case of treatment with active ingredient (B) using an application rate of q kg per hectare, in comparison with untreated control. We=expected herbicidal action (% herbicidal action in comparison with untreated control) after treatment with active ingredient (A) and active ingredient (B) at a rate of application of p+q kg of active ingredient per hectare. If the action actually observed is greater than the expected value We, there is a synergistic effect. Trial Description, Pre-Emergence Test: Monocotyledonous and dicotyledonous test plants are sown in standard soil in plastics pots. The plants tested were: Maize (ZEAMX), Ipomea purpurea (PHBPU), Euphorbia heterophylla (EPHHL), Panicum millenacearum (PANMI). Immediately after sowing, the test compounds in aqueous suspension are applied by spraying (200 litres of water/ha). (A) was formulated as a SC50, and (B1), (B2) and (B3) were formulated as WP25; 1% adjuvant crop oil concentrate (Agridex) (v/v) was added to all treatments. The compounds were applied alone and in combination as tank mixtures. The rates of application depend on the optimum concentrations determined under field conditions and greenhouse conditions. The test plants are then cultivated in a greenhouse under optimum conditions. Evaluation of the tests is made after 21 days (% action, 100%=plants have died, 0%=no phytotoxic action).
(§2) Trial Description Post-Emergence Test: The test plants are raised in plastics pots under greenhouse conditions as far as the 2- to 3-leaf stage. A standard soil is used as the cultivation substrate. The plants tested were: Maize (ZEAMX), Ipomea purpurea (PHBPU), Sorghum vulgare (SORVU), Euphorbia heterophylla (EPHHL), Panicum millenacearum (PANMI). At the 2- to 3-leaf stage, the herbicides are applied individually and as mixtures to the test plants. The test compounds are applied in the form of an aqueous suspension in 200 litres of water/ha. (A) was formulated as a SC50, and (B1), (B2) and (B3) were formulated as WP25; 1% adjuvant crop oil concentrate (Agridex) (v/v) was added to all treatments. The compounds were applied alone and in combination as tank mixtures. The rates of application depend on the optimum concentrations determined under field conditions and greenhouse conditions. Evaluation of the tests is made after 21 days (% action, 100%=plants have died, 0%=no phytotoxic action).

[1] = system: Euphorbia heterophylla (EPHHL); experiment: Post-emergence test, Euphorbia heterophylla
Source text: as §1, §2

Maize (ZEAMX) [2] = experiment: Post-emergence test, Maize
Source text: as §1, §2

Ipomea purpurea (PHBPU) [3] = experiment: Post-emergence test, Ipomea purpurea
Source text: as §1, §2

Maize (ZEAMX) [4] = experiment: Pre-emergence test, Maize
Source text: as §1

[5] = system: Panicum millenacearum (PANMI); experiment: Pre-emergence test, Panicum millenacearum
Source text: as §1

[6] = system: Euphorbia heterophylla (EPHHL); experiment: Pre-emergence test, Euphorbia heterophylla
Source text: as §1

Ipomea purpurea (PHBPU) [7] = experiment: Pre-emergence test, Ipomea purpurea
Source text: as §1

[8] = system: Panicum millenacearum (PANMI); experiment: Post-emergence test, Panicum millenacearum
Source text: as §1, §2

`CS(=O)(=O)c1ccc(C(=O)C2C(=O)CCCC2=O)c(Cl)c1COCC(F)(F)F` [(B2), tembotrione] was tested, and the “Observed plant damage SORVU” value (Sorghum vulgare (SORVU); rate 18.75 g/ha) was 0%, the “Observed plant damage SORVU” value (Sorghum vulgare (SORVU); rate 37.5 g/ha) was 0% and the “Observed plant damage SORVU” value (Sorghum vulgare (SORVU); rate 75 g/ha) was 0%. The “Observed plant damage SORVU” value (Sorghum vulgare (SORVU); rate 150 g/ha) was 0%, the “Observed plant damage SORVU” value (Sorghum vulgare (SORVU); rate 300 g/ha) was 0% and the “Observed plant damage EPHHL” value ([1]; rate 18.75 g/ha) was 65%. For the same compound, the “Observed plant damage EPHHL” value ([1]; rate 37.5 g/ha) was 75%, the “Observed plant damage EPHHL” value ([1]; rate 75 g/ha) was 80% and the “Observed plant damage EPHHL” value ([1]; rate 150 g/ha) was 98%. For the same compound, the “Observed plant damage EPHHL” value ([1]; rate 300 g/ha) was 100%, the “Observed plant damage ZEAMX” value (Maize (ZEAMX) [2]; rate 18.75 g/ha) was 0% and the “Observed plant damage ZEAMX” value (Maize (ZEAMX) [2]; rate 37.5 g/ha) was 0%. For the same compound, the “Observed plant damage ZEAMX” value (Maize (ZEAMX) [2]; rate 75 g/ha) was 0%, the “Observed plant damage ZEAMX” value (Maize (ZEAMX) [2]; rate 150 g/ha) was 0% and the “Observed plant damage ZEAMX” value (Maize (ZEAMX) [2]; rate 300 g/ha) was 0%. The “Observed plant damage PHBPU” value (Ipomea purpurea (PHBPU) [3]; rate 18.75 g/ha) was 0%, the “Observed plant damage PHBPU” value (Ipomea purpurea (PHBPU) [3]; rate 37.5 g/ha) was 25% and the “Observed plant damage PHBPU” value (Ipomea purpurea (PHBPU) [3]; rate 75 g/ha) was 55%. For the same compound, the “Observed plant damage PHBPU” value (Ipomea purpurea (PHBPU) [3]; rate 150 g/ha) was 60%, the “Observed plant damage PHBPU” value (Ipomea purpurea (PHBPU) [3]; rate 300 g/ha) was 60% and the “Observed plant damage ZEAMX” value (Maize (ZEAMX) [4]; rate 18.75 g/ha) was 0%. For the same compound, the “Observed plant damage ZEAMX” value (Maize (ZEAMX) [4]; rate 37.5 g/ha) was 0%, the “Observed plant damage ZEAMX” value (Maize (ZEAMX) [4]; rate 75 g/ha) was 0% and the “Observed plant damage ZEAMX” value (Maize (ZEAMX) [4]; rate 150 g/ha) was 0%. For the same compound, the “Observed plant damage ZEAMX” value (Maize (ZEAMX) [4]; rate 300 g/ha) was 0%, the “Observed plant damage PANMI” value ([5]; rate 18.75 g/ha) was 0% and the “Observed plant damage PANMI” value ([5]; rate 37.5 g/ha) was 0%. For the same compound, the “Observed plant damage PANMI” value ([5]; rate 75 g/ha) was 0%, the “Observed plant damage PANMI” value ([5]; rate 150 g/ha) was 40% and the “Observed plant damage PANMI” value ([5]; rate 300 g/ha) was 98%. The “Observed plant damage EPHHL” value ([6]; rate 18.75 g/ha) was 0%, the “Observed plant damage EPHHL” value ([6]; rate 37.5 g/ha) was 0% and the “Observed plant damage EPHHL” value ([6]; rate 75 g/ha) was 0%. For the same compound, the “Observed plant damage EPHHL” value ([6]; rate 150 g/ha) was 100%, the “Observed plant damage EPHHL” value ([6]; rate 300 g/ha) was 100% and the “Observed plant damage PHBPU” value (Ipomea purpurea (PHBPU) [7]; rate 18.75 g/ha) was 0%. For the same compound, the “Observed plant damage PHBPU” value (Ipomea purpurea (PHBPU) [7]; rate 37.5 g/ha) was 0%, the “Observed plant damage PHBPU” value (Ipomea purpurea (PHBPU) [7]; rate 75 g/ha) was 0% and the “Observed plant damage PHBPU” value (Ipomea purpurea (PHBPU) [7]; rate 150 g/ha) was 20%. For the same compound, the “Observed plant damage PHBPU” value (Ipomea purpurea (PHBPU) [7]; rate 300 g/ha) was 75%, the “Observed plant damage PANMI” value ([8]; rate 18.75 g/ha) was 0% and the “Observed plant damage PANMI” value ([8]; rate 37.5 g/ha) was 20%. For the same compound, the “Observed plant damage PANMI” value ([8]; rate 75 g/ha) was 20%, the “Observed plant damage PANMI” value ([8]; rate 150 g/ha) was 65% and the “Observed plant damage PANMI” value ([8]; rate 300 g/ha) was 50%.
In the case of `Cc1c(C(=O)c2cnn(C)c2O)ccc(S(C)(=O)=O)c1C1=NOCC1` [(B3), topramezone], the “Observed plant damage SORVU” value (Sorghum vulgare (SORVU); rate 5 g/ha) is reported as 0%, the “Observed plant damage SORVU” value (Sorghum vulgare (SORVU); rate 10 g/ha) is reported as 0% and the “Observed plant damage SORVU” value (Sorghum vulgare (SORVU); rate 20 g/ha) is reported as 0%. The “Observed plant damage SORVU” value (Sorghum vulgare (SORVU); rate 40 g/ha) was 0%, the “Observed plant damage SORVU” value (Sorghum vulgare (SORVU); rate 80 g/ha) was 0% and the “Observed plant damage EPHHL” value ([1]; rate 5 g/ha) was 0%. The “Observed plant damage EPHHL” value ([1]; rate 10 g/ha) was 20%, the “Observed plant damage EPHHL” value ([1]; rate 20 g/ha) was 50% and the “Observed plant damage EPHHL” value ([1]; rate 40 g/ha) was 65%. The “Observed plant damage EPHHL” value ([1]; rate 80 g/ha) was 90%, the “Observed plant damage ZEAMX” value (Maize (ZEAMX) [2]; rate 5 g/ha) was 0% and the “Observed plant damage ZEAMX” value (Maize (ZEAMX) [2]; rate 10 g/ha) was 0%. For the same compound, the “Observed plant damage ZEAMX” value (Maize (ZEAMX) [2]; rate 20 g/ha) was 0%, the “Observed plant damage ZEAMX” value (Maize (ZEAMX) [2]; rate 40 g/ha) was 0% and the “Observed plant damage ZEAMX” value (Maize (ZEAMX) [2]; rate 80 g/ha) was 20%. For the same compound, the “Observed plant damage PHBPU” value (Ipomea purpurea (PHBPU) [3]; rate 5 g/ha) was 35%, the “Observed plant damage PHBPU” value (Ipomea purpurea (PHBPU) [3]; rate 10 g/ha) was 55% and the “Observed plant damage PHBPU” value (Ipomea purpurea (PHBPU) [3]; rate 20 g/ha) was 20%. The “Observed plant damage PHBPU” value (Ipomea purpurea (PHBPU) [3]; rate 40 g/ha) was 25%, the “Observed plant damage PHBPU” value (Ipomea purpurea (PHBPU) [3]; rate 80 g/ha) was 80% and the “Observed plant damage ZEAMX” value (Maize (ZEAMX) [4]; rate 5 g/ha) was 0%. The “Observed plant damage ZEAMX” value (Maize (ZEAMX) [4]; rate 10 g/ha) was 0%, the “Observed plant damage ZEAMX” value (Maize (ZEAMX) [4]; rate 20 g/ha) was 0% and the “Observed plant damage ZEAMX” value (Maize (ZEAMX) [4]; rate 40 g/ha) was 0%. For the same compound, the “Observed plant damage ZEAMX” value (Maize (ZEAMX) [4]; rate 80 g/ha) was 0%, the “Observed plant damage PANMI” value ([5]; rate 5 g/ha) was 0% and the “Observed plant damage PANMI” value ([5]; rate 10 g/ha) was 0%. The “Observed plant damage PANMI” value ([5]; rate 20 g/ha) was 0%, the “Observed plant damage PANMI” value ([5]; rate 40 g/ha) was 0% and the “Observed plant damage PANMI” value ([5]; rate 80 g/ha) was 98%. The “Observed plant damage EPHHL” value ([6]; rate 5 g/ha) was 0%, the “Observed plant damage EPHHL” value ([6]; rate 10 g/ha) was 0% and the “Observed plant damage EPHHL” value ([6]; rate 20 g/ha) was 0%. The “Observed plant damage EPHHL” value ([6]; rate 40 g/ha) was 0%, the “Observed plant damage EPHHL” value ([6]; rate 80 g/ha) was 30% and the “Observed plant damage PHBPU” value (Ipomea purpurea (PHBPU) [7]; rate 5 g/ha) was 0%. The “Observed plant damage PHBPU” value (Ipomea purpurea (PHBPU) [7]; rate 10 g/ha) was 0%, the “Observed plant damage PHBPU” value (Ipomea purpurea (PHBPU) [7]; rate 20 g/ha) was 0% and the “Observed plant damage PHBPU” value (Ipomea purpurea (PHBPU) [7]; rate 40 g/ha) was 0%. The “Observed plant damage PHBPU” value (Ipomea purpurea (PHBPU) [7]; rate 80 g/ha) was 55%, the “Observed plant damage PANMI” value ([8]; rate 5 g/ha) was 0% and the “Observed plant damage PANMI” value ([8]; rate 10 g/ha) was 20%. For the same compound, the “Observed plant damage PANMI” value ([8]; rate 20 g/ha) was 80%, the “Observed plant damage PANMI” value ([8]; rate 40 g/ha) was 90% and the “Observed plant damage PANMI” value ([8]; rate 80 g/ha) was 90%.
